Measured values taken from PubChem BioAssay AID1259411 (Chemical Carcinogenesis Research Information System (CCRIS), 2018).
Activity calls are given as the source filed them. How the calls were made is not given here.

Tested on: rodent carcinogenicity bioassays, tumor incidence
Experiment: CCRIS carcinogenicity studies
In short: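 NCI-built, expert-reviewed records of carcinogenicity and related test outcomes (mutagenicity, tumor promotion/inhibition) compiled from published and report sources, historical span 1985-2011, not updated.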

CC(=O)Nc1ccc2c(c1)Cc1ccccc1-2
carcinogen call (Species: DOG, Strain/Sex: BEAGLE, Route: ORAL, Dose: 8.3-10.9 MG/KG/D (AVE DAILY INTAKE) FOR 68.5-91 MO (TOTAL DOSE: 90-198 G), Tumor Site: Type of Lesion: LIVER: CARCINOMA, URINARY BLADDER: PAPILLOMA): active; positive | carcinogen call (Species: FISH, Strain/Sex: GUPPY/ MALE, FEMALE, Route: IMMERSION, Dose: 0, 1 MG/L IN WELL WATER FOR 1 6 HR EXPOSURE OR FOR 1,2,3 OR 4 12 HR EXPOSURES, MULTIPLE EXPOSURES GIVEN AT WEEKLY INTERV): inactive; negative | carcinogen call (Species: FISH, Strain/Sex: GUPPY/ MALE, FEMALE, Route: IMMERSION, Dose: 0, 1 MG/L IN WELL WATER FOR 7 D CONTINUOUS EXPOSURE, SOLUTIONS RENEWED EVERY 24 HR (STUDY DURATION: 52 WK), Tumor Site: Type of Lesion: LIVER: TUMOR): active; positive | carcinogen call (Species: FISH, Strain/Sex: MEDAKA/ MALE, FEMALE, Route: IMMERSION, Dose: 0, 1 MG/L IN WELL WATER FOR 1 6 HR EXPOSURE OR FOR 1,2,3 OR 4 12 HR EXPOSURES, MULTIPLE EXPOSURES GIVEN AT WEEKLY INTERV): inactive; negative | carcinogen call (Species: FISH, Strain/Sex: MEDAKA/ MALE, FEMALE, Route: IMMERSION, Dose: 0, 1 MG/L IN WELL WATER FOR 7 D CONTINUOUS EXPOSURE, SOLUTIONS RENEWED EVERY 24 HR (STUDY DURATION: 52 WK)): inactive; negative | carcinogen call (Species: HAMSTER, Strain/Sex: SYRIAN/ MALE, FEMALE, Route: INTRAPERITONEAL, ORAL, Dose: 5 MG/100 G 3/WK FOR 3 WK, THEN 0.06% IN DIET, Tumor Site: Type of Lesion: URINARY BLADDER, LIVER: CHOLANGIOCARCINOMA): active; positive | carcinogen call (Species: HAMSTER, Strain/Sex: SYRIAN/FEMALE, Route: ORAL, Dose: 0.025% IN DIET FOR LIFE, Tumor Site: Type of Lesion: LIVER: INTRAHEPATIC BILE DUCT CARCINOMA): active; positive | carcinogen call (Species: HAMSTER, Strain/Sex: SYRIAN, Route: ORAL, Dose: 5 MG FOR 22 WK THEN 15 MG FOR 4 WK, THEN 10 MG 2/WK AFTER 42 WK, Tumor Site: Type of Lesion: URINARY BLADDER: CARCINOMA): active; positive | carcinogen call (Species: MOUSE, Strain/Sex: BALB/C/FEMALE, Route: ORAL, Dose: 0, 75, 100, 150 PPM IN DIET UP TO 33 MO (STUDY DURATION: 33 MO), Dose: 0, 75, 100, 150 PPM IN DIET UP TO 33 MO (STUDY DURATION: 33 MO), Tumor Site: Type of Lesion: LIVER: HEPATOCELLULAR ADENOMA OR CARCINOMA, BLADDER: TRANSITIONAL CELL CARCINOMA): active; positive | carcinogen call (Species: MOUSE, Strain/Sex: CBA/ MALE, FEMALE, Route: ORAL, Dose: 3 MG/MOUSE 2/WK, Tumor Site: Type of Lesion: MAMMARY GLAND, URINARY BLADDER, LIVER, Tumor Site: Type of Lesion: MAMMARY GLAND, URINARY BLADDER, LIVER): active; positive | carcinogen call (Species: MOUSE, Strain/Sex: EU-PIM-1/FEMALE, Route: GAVAGE, Dose: 0, 25, 100 MG/KG 1/D FOR 38 WK (STUDY DURATION: 38 WK), Dose: 0, 25, 100 MG/KG 1/D FOR 38 WK (STUDY DURATION: 38 WK)): inactive; negative | carcinogen call (Species: MOUSE, Strain/Sex: EU-PIM-1/MALE, Route: GAVAGE, Dose: 0, 25, 100 MG/KG 1/D FOR 38 WK (STUDY DURATION: 38 WK), Dose: 0, 25, 100 MG/KG 1/D FOR 38 WK (STUDY DURATION: 38 WK), Tumor Site: Type of Lesion: LYMPHATIC SYSTEM: LYMPHOMA): active; positive | carcinogen call (Species: MOUSE, Strain/Sex: R-III/ MALE, FEMALE, Route: ORAL, Dose: 3 MG/MOUSE 2/WK, Tumor Site: Type of Lesion: URINARY BLADDER, LIVER): active; positive | carcinogen call (Species: MOUSE, Strain/Sex: STRAIN-A/ MALE, FEMALE, Route: ORAL, Dose: 3 MG/MOUSE 2/WK, Tumor Site: Type of Lesion: URINARY BLADDER): active; positive | carcinogen call (Species: MOUSE, Strain/Sex: STRAIN-IF/ MALE, FEMALE, Route: ORAL, Dose: 3 MG/MOUSE 2/WK, Tumor Site: Type of Lesion: URINARY BLADDER, LIVER, MAMMARY GLAND, Tumor Site: Type of Lesion: URINARY BLADDER, LIVER, MAMMARY GLAND): active; positive | carcinogen call (Species: RABBIT, Strain/Sex: NZW/ MALE, FEMALE, Route: ORAL, Dose: 100 MG 2/WK (TOTAL DOSE 21-52 G AS POWDER), Tumor Site: Type of Lesion: URINARY BLADDER: PAPILLOMA, ADENOCARCINOMA, URETER: PAPILLOMA, ADENOCARCINOMA): active; positive | carcinogen call (Species: RABBIT, Strain/Sex: NZW/FEMALE, Route: ORAL, Dose: 100 MG IN 1 ML CORN OIL 2/WK FOR LIFE, Tumor Site: Type of Lesion: URINARY BLADDER: TRANSITIONAL CELL TUMOR, KIDNEY: TRANSITIONAL CELL TUMOR): active; positive | carcinogen call (Species: RAT, Strain/Sex: AES/FEMALE, Route: ORAL, Dose: 300 MG/KG IN SEMI-PURIFIED OR STOCK DIET, Tumor Site: Type of Lesion: EAR (DUCT): CARCINOMA): active; positive | carcinogen call (Species: RAT, Strain/Sex: ALBINO/ MALE, FEMALE, Route: ORAL, Dose: 0.036% IN DIET FOR 8 MO, Tumor Site: Type of Lesion: LIVER: HEPATOMA, MAMMARY GLAND, EAR (DUCT), Tumor Site: Type of Lesion: LIVER: HEPATOMA, MAMMARY GLAND, EAR (DUCT)): active; positive | carcinogen call (Species: RAT, Strain/Sex: ALBINO/FEMALE, Route: ORAL, Dose: 0.125% IN DIET, Tumor Site: Type of Lesion: URINARY BLADDER: CARCINOMA): active; positive
